Where a name gives a salt, the structure may show the parent alone.

This series concerns hDMFa myofibroblast cells.
With `CC1=CC(=O)[C@H]2C[C@@H]1C2(C)C` [Cmpd 20, (1S)-(−)-Verbenone], the “Compound Myofibroblast Cytotoxicity Activity” value is reported as “++”.

In the case of `OC[C@@H](O)[C@@H](O)[C@H](O)[C@@H](O)CO` [Cmpd 882, Sorbitol], the “Compound Myofibroblast Cytotoxicity Activity” value was “++++”.

In the case of `Cc1cccc(CN2CCN(C(c3ccccc3)c3ccc(Cl)cc3)CC2)c1.Cl.Cl` (centres unmarked) [Cmpd 641, Meclizine 2HCl], the “Compound Myofibroblast Cytotoxicity Activity” value is on record as “++”.

Regarding `CSCC[C@H](N)C(=O)O` [Cmpd 657, Methionine], the “Compound Myofibroblast Cytotoxicity Activity” value was “++”.

For the molecule `C=C1C(=O)O[C@@H]2/C=C(\C)CC/C=C(\C)CC[C@@H]12` [Cmpd 292, Costunolide], the “Compound Myofibroblast Cytotoxicity Activity” value was “+++”.

Regarding `CN(C/C=C/C#CC(C)(C)C)Cc1cccc2ccccc12` [Cmpd 926, Terbinafine], the “Compound Myofibroblast Cytotoxicity Activity” value is on record as “++”.

`CC(C)(C)C(=O)OCOP(=O)(COCCn1cnc2c(N)ncnc21)OCOC(=O)C(C)(C)C` [Cmpd 89, Adefovir Dipivoxil]: the “Compound Myofibroblast Cytotoxicity Activity” value is “++++”.

In the case of `C[C@H]1[C@H](OC(=O)CCC(=O)O)O[C@@H]2O[C@@]3(C)CC[C@H]4[C@H](C)CC[C@@H]1[C@@]24OO3` [Cmpd 132, Artesunate], the “Compound Myofibroblast Cytotoxicity Activity” value is on record as “+++”.

With `COc1ccc(OC)c(C(O)CNC(=O)CN)c1` (centres unmarked) [Cmpd 673, Midodrine (hydrochloride)], the “Compound Myofibroblast Cytotoxicity Activity” value is listed as “++++”.

Take `CCCCCCCC/C=C\CCCCCCCC(=O)O` [Cmpd 733, Oleic Acid]: the “Compound Myofibroblast Cytotoxicity Activity” value is “+++”.

`CC(C)(C)c1cc(NC(=O)Nc2ccc(-c3cn4c(n3)sc3cc(OCCN5CCOCC5)ccc34)cc2)no1` [Cmpd 815, Quizartinib (AC220)]: the “Compound Myofibroblast Cytotoxicity Activity” value was “++++”.

As to `Cc1ccc(S(=O)(=O)NC(=O)NN2CCCCCC2)cc1` [Cmpd 953, Tolazamide], the “Compound Myofibroblast Cytotoxicity Activity” value is “++++”.

Take `CC/C=C\C/C=C\C/C=C\C/C=C\C/C=C\CCCC(=O)O` [Cmpd 408, Eicosapentaenoic Acid]: the “Compound Myofibroblast Cytotoxicity Activity” value is given as “+++”.

Turning to `C=C1/C(=C\C=C2/CCC[C@]3(C)[C@@H]([C@H](C)CCCC(C)(C)O)CC[C@@H]23)C[C@@H](O)C[C@@H]1O` [Cmpd 204, Calcitriol], the “Compound Myofibroblast Cytotoxicity Activity” value was “+++”.

Regarding `NC(=O)c1cccnc1` [Cmpd 705, Niacinamide], the “Compound Myofibroblast Cytotoxicity Activity” value is recorded as “+”.

Take `CC(C)=C1C/C=C(\C)CC/C=C(\C)CC1=O` [Cmpd 482, Germacrone]: the “Compound Myofibroblast Cytotoxicity Activity” value was “+++++”.

As to `CCN(CC)CC(=O)Nc1c(C)cccc1C.Cl.O` [Cmpd 589, Lidocaine hydrochloride monohydrate], the “Compound Myofibroblast Cytotoxicity Activity” value is “++”.

As for `CC[C@@H]1/C=C(\C)C[C@H](C)C[C@H](OC)[C@H]2O[C@@](O)(C(=O)C(=O)N3CCCC[C@H]3C(=O)O[C@H](/C(C)=C/[C@@H]3CC[C@@H](O)[C@H](OC)C3)[C@H](C)[C@@H](O)CC1=O)[C@H](C)C[C@@H]2OC` [Cmpd 133, Ascomycin(FK 520)], the “Compound Myofibroblast Cytotoxicity Activity” value is on record as “+++”.

As for `CCCCC1OC(=O)c2ccccc21` (centres unmarked) [Cmpd 54, 3-n-Butylphathlide], the “Compound Myofibroblast Cytotoxicity Activity” value is on record as “++”.

Consider `Nc1nc2ncc(CNc3ccc(C(=O)N[C@@H](CCC(=O)O)C(=O)O)cc3)nc2c(=O)[nH]1` [Cmpd 467, Folic acid], for which the “Compound Myofibroblast Cytotoxicity Activity” value is given as “++”.

For Teicoplanin [Cmpd 921], the “Compound Myofibroblast Cytotoxicity Activity” value is “+++”.

As to `CC(C)(C(=O)c1cccnc1)c1cccnc1` [Cmpd 667, Metyrapone], the “Compound Myofibroblast Cytotoxicity Activity” value was “++”.

As to `COC(=O)c1ccccc1O` [Cmpd 659, Methyl salicylate], the “Compound Myofibroblast Cytotoxicity Activity” value is reported as “++”.

As for `C=C(CC)C(=O)c1ccc(OCC(=O)O)c(Cl)c1Cl` [Cmpd 434, Ethacrynic Acid], the “Compound Myofibroblast Cytotoxicity Activity” value was “+++”.

Take `CNCC[C@H](Oc1cccc2ccccc12)c1cccs1` [Cmpd 397, Duloxetine HCl]: the “Compound Myofibroblast Cytotoxicity Activity” value was “+++++”.

Take `Nc1cccc2c1C(=O)N(C1CCC(=O)NC1=O)C2=O` (centres unmarked) [Cmpd 789, Pomalidomide (CC-4047)]: the “Compound Myofibroblast Cytotoxicity Activity” value was “++”.

Zinc Pyrithione [Cmpd 1026]: the “Compound Myofibroblast Cytotoxicity Activity” value was “+++++”.

With `CCCCc1oc2ccccc2c1C(=O)c1cc(I)c(OCCN(CC)CC)c(I)c1` [Cmpd 107, Amiodarone HCl], the “Compound Myofibroblast Cytotoxicity Activity” value is given as “+++”.

Regarding `Clc1ccc(Cn2c(CN3CCCC3)nc3ccccc32)cc1` [Cmpd 277, Clemizole hydrochloride], the “Compound Myofibroblast Cytotoxicity Activity” value is given as “++”.

In the case of `CS(=O)(=O)O.C[C@H]1COc2c(C3(N)CC3)c(F)cc3c(=O)c(C(=O)O)cn1c23` [Cmpd 760, Pazufloxacin mesylate], the “Compound Myofibroblast Cytotoxicity Activity” value was “+++”.

Consider `CCCN1CCCC[C@H]1C(=O)Nc1c(C)cccc1C.CS(=O)(=O)O` [Cmpd 840, Ropivacaine Mesilate], for which the “Compound Myofibroblast Cytotoxicity Activity” value is “++”.

In the case of `CC/C(=C(\c1ccccc1)c1ccc(OCCN(C)C)cc1)c1ccccc1` [Cmpd 911, Tamoxifen Citrate], the “Compound Myofibroblast Cytotoxicity Activity” value is reported as “+++”.

For `C=C1CC[C@H]2C(=C)CC[C@H]3C(=C)C(=O)O[C@@H]3[C@@H]12` [Cmpd 336, Dehydrocostus Lactone], the “Compound Myofibroblast Cytotoxicity Activity” value was “+++++”.

Take `Cc1cc(=O)oc2cc(O)ccc12` [Cmpd 63, 4-Methylumbelliferone (4-MU)]: the “Compound Myofibroblast Cytotoxicity Activity” value is recorded as “++++”.

As for `CC[C@H](NC(=O)[C@H](C)NC)C(=O)N1C[C@@H](O)C[C@H]1Cc1c(-c2[nH]c3cc(F)ccc3c2C[C@@H]2C[C@H](O)CN2C(=O)[C@H](CC)NC(=O)[C@H](C)NC)[nH]c2cc(F)ccc12` [Cmpd 184, Birinapant (TL32711)], the “Compound Myofibroblast Cytotoxicity Activity” value is given as “++”.

Turning to `O=C(O)c1cc(O)cc(O)c1` [Cmpd 50, 3-5-Dihydroxybenzoic Acid], the “Compound Myofibroblast Cytotoxicity Activity” value was “++”.

For the molecule `CC(C)(CO)[C@H](O)C(=O)NCCCO` [Cmpd 390, D-Panthenol], the “Compound Myofibroblast Cytotoxicity Activity” value was “++”.

On to `CC(=O)NS(=O)(=O)c1ccc(N)cc1` [Cmpd 894, Sulfacetamide sodium salt hydrate], for which the “Compound Myofibroblast Cytotoxicity Activity” value was “++”.

As to `CC(=O)c1c(C)c2cnc(Nc3ccc(N4CCNCC4)cn3)nc2n(C2CCCC2)c1=O.Cl` [Cmpd 763, PD 0332991 (Palbociclib) HCl], the “Compound Myofibroblast Cytotoxicity Activity” value is recorded as “++++”.

On to `CN(C)CCN(Cc1ccc(Cl)cc1)c1ccccn1` [Cmpd 250, Chloropyramine hydrochloride], for which the “Compound Myofibroblast Cytotoxicity Activity” value is reported as “++”.

As for `CO/N=C(\C(=O)N[C@@H]1C(=O)N2C(C(=O)OCOC(=O)C(C)(C)C)=C(C)CS[C@H]12)c1csc(N)n1.Cl` [Cmpd 230, Cefetamet pivoxil hydrochloride], the “Compound Myofibroblast Cytotoxicity Activity” value is reported as “+++++”.

On to `CCCCCCCCCCCCCCCC(=O)OC` [Cmpd 754], for which the “Compound Myofibroblast Cytotoxicity Activity” value was “+++”.

Regarding `O=C(O)c1ccccc1C(=O)O` [Cmpd 781, Phthalic acid], the “Compound Myofibroblast Cytotoxicity Activity” value is “++”.

With `CNCCc1ccccn1.CS(=O)(=O)O.CS(=O)(=O)O` [Cmpd 175, Betahistine mesylate], the “Compound Myofibroblast Cytotoxicity Activity” value is recorded as “++”.

Consider `CCOC(=O)C1=C[C@]2(CC)CCCN3CCc4c(n1c1ccccc41)[C@@H]32` [Cmpd 1006, Vinpocetine], for which the “Compound Myofibroblast Cytotoxicity Activity” value was “+++”.

For the molecule `COc1ccc2[n-]c([S+]([O-])Cc3ncc(C)c(OC)c3C)nc2c1.[Na+]` (centres unmarked) [Cmpd 737, Omeprazole Sodium], the “Compound Myofibroblast Cytotoxicity Activity” value is reported as “++”.

For `Nc1ncnc2c1ncn2[C@@H]1O[C@H](COP(=O)(O)OP(=O)(O)O)[C@@H](O)[C@H]1O` [Cmpd 92], the “Compound Myofibroblast Cytotoxicity Activity” value is reported as “++”.

For the molecule `C[C@]1(O)C[C@@H](c2nc(-c3ccc4ccc(-c5ccccc5)nc4c3)c3c(N)nccn32)C1` [Cmpd 592, Linsitinib], the “Compound Myofibroblast Cytotoxicity Activity” value is recorded as “+++”.

As to `CC(C)OC(=O)C(C(=O)OC(C)C)=C1SC=CS1` [Cmpd 632, Malotilate], the “Compound Myofibroblast Cytotoxicity Activity” value is given as “++”.

Turning to `COc1cc2nc(N3CCN(C(=O)C4COc5ccccc5O4)CC3)nc(N)c2cc1OC` (centres unmarked) [Cmpd 384, Doxazosin Mesylate], the “Compound Myofibroblast Cytotoxicity Activity” value is given as “+++”.

Turning to `C[C@H](Oc1cc(-c2cnn(C3CCNCC3)c2)cnc1N)c1c(Cl)ccc(F)c1Cl` [Cmpd 29, (S)-Crizotinib], the “Compound Myofibroblast Cytotoxicity Activity” value was “++++”.

In the case of `CN1CCN(c2nc(C3=C(c4c[nH]c5ccccc45)C(=O)NC3=O)c3ccccc3n2)CC1` [Cmpd 884, Sotrastaurin (AEB071)], the “Compound Myofibroblast Cytotoxicity Activity” value was “++”.

For `Cc1cn([C@H]2C[C@H](O)[C@@H](CO)O2)c(=O)[nH]c1=O` [Cmpd 943, Thymidine], the “Compound Myofibroblast Cytotoxicity Activity” value was “++”.

For the molecule `CCN(CC)C(=O)C1(c2ccccc2)CC1CN` (centres unmarked) [Cmpd 676, Milnacipran HCl], the “Compound Myofibroblast Cytotoxicity Activity” value was “++++”.

As to `O=C(/C=C/c1ccc(O)c(O)c1)OCCc1ccccc1` [Cmpd 201], the “Compound Myofibroblast Cytotoxicity Activity” value is listed as “++”.

Turning to `C=C1C(=O)O[C@@H]2C[C@@]3(C)CCC[C@H](C)C3=C[C@H]12` [Cmpd 97, Alantolactone], the “Compound Myofibroblast Cytotoxicity Activity” value was “++++”.

As for `O=c1[nH]c(=O)c2[nH]cnc2[nH]1` [Cmpd 1020, xanthine], the “Compound Myofibroblast Cytotoxicity Activity” value is “++”.

Regarding `Cc1ccc(NC(=O)c2ccc(CN3CC[C@H](N(C)C)C3)c(C(F)(F)F)c2)cc1Nc1nccc(-c2cncnc2)n1` [Cmpd 152, Bafetinib (INNO-406)], the “Compound Myofibroblast Cytotoxicity Activity” value is “+++”.

Regarding `Oc1ccccc1O` [Cmpd 810, Pyrocatechol], the “Compound Myofibroblast Cytotoxicity Activity” value is “++”.

`CCCCCCCCCC(=O)O` [Cmpd 212, Caprate (10:0)]: the “Compound Myofibroblast Cytotoxicity Activity” value was “++”.

With `CC(COc1ccccc1)NC(C)C(O)c1ccc(O)cc1` (centres unmarked) [Cmpd 542, Isoxsuprine (hydrochloride)], the “Compound Myofibroblast Cytotoxicity Activity” value was “++”.

As to `C=C1CC/C=C(\C)CC[C@@H]2[C@@H]1CC2(C)C` [Cmpd 8, β-Caryophyllene], the “Compound Myofibroblast Cytotoxicity Activity” value is recorded as “+++”.

Values taken from US20260102359A1, “COMBINATION TREATMENT OF DERMAL AND TRANSDERMAL FIBROTIC DISEASES, DISORDERS AND ASSOCIATED PAIN AND INFLAMMATION” (ERESINA, LLC, priority 2022, published 2026).
